According to patent publication US20100144809A1, “NOVEL BENZAMIDINE DERIVATIVES USEFUL AS POTASSIUM CHANNEL MODULATORS” (Neuro Search A/S, priority 2007, published 2010):

target: T1, human BK channels (Homo sapiens, UniProt Q12791); test: Electrophysiological determination of BK current, two-electrode voltage clamp in Xenopus oocytes; assay type: cell-based; conditions: 30 μM; increase of BK current relative to the basal current; Xenopus oocytes expressing human BK channels
T1 construct: expressed in transfected cells; host or cells: Xenopus oocytes
Description: In this experiment we investigated the influence of the compounds of the invention on the membrane currents when determined electrophysiologically on Xenopus Oocytes capable of expressing human BK channels, and the current through the channels is recorded using the classical two-electrode voltage clamp technique.
The results of these determinations are presented in Table 1 below, and presented as the increase of BK current relative to the basal current.

T1 sequence (Q12791 whole entry): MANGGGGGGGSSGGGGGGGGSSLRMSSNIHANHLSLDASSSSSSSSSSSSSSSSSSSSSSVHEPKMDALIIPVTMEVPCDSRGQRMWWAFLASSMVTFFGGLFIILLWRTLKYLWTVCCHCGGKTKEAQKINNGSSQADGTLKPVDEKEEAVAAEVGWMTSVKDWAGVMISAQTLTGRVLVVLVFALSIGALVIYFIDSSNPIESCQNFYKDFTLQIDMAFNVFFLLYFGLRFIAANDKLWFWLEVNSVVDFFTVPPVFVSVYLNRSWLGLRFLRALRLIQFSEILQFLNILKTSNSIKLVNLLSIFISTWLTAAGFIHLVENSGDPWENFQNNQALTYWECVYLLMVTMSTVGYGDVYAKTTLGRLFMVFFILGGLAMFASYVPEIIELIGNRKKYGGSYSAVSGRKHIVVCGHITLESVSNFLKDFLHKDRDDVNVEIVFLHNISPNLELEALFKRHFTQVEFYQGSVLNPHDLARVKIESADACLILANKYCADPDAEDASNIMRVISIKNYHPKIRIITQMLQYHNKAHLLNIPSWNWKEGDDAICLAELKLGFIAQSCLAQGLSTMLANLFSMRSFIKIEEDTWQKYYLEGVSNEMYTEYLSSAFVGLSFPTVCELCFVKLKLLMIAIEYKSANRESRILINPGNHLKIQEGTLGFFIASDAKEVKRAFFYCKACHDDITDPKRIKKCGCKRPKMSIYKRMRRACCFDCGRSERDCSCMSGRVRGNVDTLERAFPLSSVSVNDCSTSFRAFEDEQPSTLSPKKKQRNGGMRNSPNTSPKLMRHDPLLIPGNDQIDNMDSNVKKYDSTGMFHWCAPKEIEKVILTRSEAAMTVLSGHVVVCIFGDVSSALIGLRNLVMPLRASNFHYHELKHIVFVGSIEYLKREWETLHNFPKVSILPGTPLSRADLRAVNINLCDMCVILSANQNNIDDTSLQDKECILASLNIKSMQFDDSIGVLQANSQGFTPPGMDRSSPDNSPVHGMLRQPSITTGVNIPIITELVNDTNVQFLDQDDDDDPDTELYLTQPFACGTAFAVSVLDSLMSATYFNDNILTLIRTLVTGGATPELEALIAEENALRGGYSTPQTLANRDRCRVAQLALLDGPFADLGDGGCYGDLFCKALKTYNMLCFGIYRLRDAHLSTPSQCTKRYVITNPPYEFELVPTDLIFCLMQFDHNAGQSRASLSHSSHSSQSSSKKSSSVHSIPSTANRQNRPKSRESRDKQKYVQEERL

Row | Relative Increase of BK Current | SMILES
1 | 1342% | ONC(=Nc1ccc(-c2ccc(C(F)(F)F)cc2)cc1-c1nnn[nH]1)c1cc(C(F)(F)F)cc(C(F)(F)F)c1 [Compound 3, N-Hydroxy-N′-[3-(1H-tetrazol-5-yl)-4′-trifluoromethyl-biphenyl-4-yl]-3,5-bis-trifluoromethyl-benzamidine]
2 | 252% | O=c1[nH]nc(-c2cc(C(F)(F)F)cc(C(F)(F)F)c2)n1-c1ccc(-c2ccc(C(F)(F)F)cc2)cc1-c1nn[nH]n1 [Compound 2, 5-(3,5-Bis-trifluoromethyl-phenyl)-4-[3-(2H-tetrazol-5-yl)-4′-trifluoromethyl-biphenyl-4-yl]-2,4-dihydro-[1,2,4]triazol-3-one]
3 | 1118% | NNC(=Nc1ccc(-c2ccc(C(F)(F)F)cc2)cc1-c1nnn[nH]1)c1cc(C(F)(F)F)cc(C(F)(F)F)c1 [Compound 1, N-Amino-N′-[3-(1H-tetrazol-5-yl)-4′-trifluoromethyl-biphenyl-4-yl]-3,5-bis-trifluoromethyl-benzamidine]
